Results published in patent US6683077B2, “2-Amino-benzoxazinones for the treatment of viral infections” (G.D. Searle & Co., priority 1996, dated 2004).

Key:
[1] = test system: HCMV engineered virus RC256; test: microbe, parasite or virus in culture; type: cell-based, human cytomegalovirus; details: Human betaherpesvirus 5, Fibroblast, read-out: Antiviral Activity RC256, first value (EC50)
[2] = target: T1, Human leukocyte elastase (HLE) (Homo sapiens, UniProt P08246); test: Human leukocyte elastase assay; type: biochemical
T1 construct: gift of R. Senior, Washington University
T1 sequence (P08246 30-267): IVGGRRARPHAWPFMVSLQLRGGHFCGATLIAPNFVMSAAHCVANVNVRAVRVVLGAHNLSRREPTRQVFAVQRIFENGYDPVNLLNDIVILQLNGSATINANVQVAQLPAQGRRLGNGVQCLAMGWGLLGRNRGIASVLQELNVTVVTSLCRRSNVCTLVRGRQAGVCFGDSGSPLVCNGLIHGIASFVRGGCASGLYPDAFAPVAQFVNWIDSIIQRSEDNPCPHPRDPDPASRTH
Protocol: Human leukocyte elastase (HLE) (gift of R. Senior, Washington University) was dissolved in saline at 1 mg/ml and further diluted 1/20 in assay buffer (0.2 M Tris, pH 8.0) before use. 10 μl of test compound in DMSO (or DMSO alone), 100 μl of assay buffer and 50 μl of enzyme were added to 96 well plates, mixed and pre-incubated for 30 minutes at ambient temperature. Reaction was initiated by addition of 40 μl of 2.5 mM methoxysuccinyl-Ala-Ala-Pro-Val-p-nitroanilide (Sigma; 25 mM in DMSO diluted 1/10 in assay buffer before use). The increase in absorbance at 405 nm was monitored for 10 minutes with a Biotek EL340 plate reader.

[3] = target: HCMV protease (assemblin) (Human cytomegalovirus, UniProt P16753); test: Enzymatic assay for HCMV protease (assemblin) inhibitors; type: biochemical
[4] = @ 1 (concentration unit not given)
[5] = @ 10 (concentration unit not given)
[6] = @ 100 (concentration unit not given)

HCMV protease (assemblin), sequence (P16753 1-256): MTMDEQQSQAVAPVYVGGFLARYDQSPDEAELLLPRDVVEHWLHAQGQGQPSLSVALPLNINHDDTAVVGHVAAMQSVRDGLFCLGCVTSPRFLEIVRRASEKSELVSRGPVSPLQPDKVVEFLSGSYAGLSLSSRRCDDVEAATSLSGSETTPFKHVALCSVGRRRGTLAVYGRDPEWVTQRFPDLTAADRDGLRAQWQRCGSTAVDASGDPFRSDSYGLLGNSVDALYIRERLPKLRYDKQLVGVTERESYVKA

Row | SMILES | EC50 [1] [µM] | HLE, % @ concentration [2, 4] [% @ 1] | HLE, % @ concentration [2, 5] [% @ 10] | further results
1 | COc1ccc(C[C@H](Nc2nc3ccc(CNC(=O)OC(C)(C)C)c(C)c3c(=O)o2)C(=O)N(C)c2ccc(Cl)cc2)cc1 [Example 7r, 1,1-Dimethylethyl[[2-[[2-[(4-chlorophenyl)methylamino]-1S-[(4-methoxyphenyl)methyl]-2-oxoethyl]amino]-5-methyl-4-oxo-4H-3,1-benzoxazin-6-yl]methyl]carbamate] | 7 | 44 |  | Assemblin Protease, % @ concentration [3, 4]: 52% @ 1
2 | Cc1c(CNC(=O)Oc2ccccc2)ccc2nc(N[C@@H](Cc3ccccc3)C(=O)N(C)Cc3ccccc3)oc(=O)c12 [Example 9ee, Phenyl[[5-methyl-2-[[2-[methyl(phenylmethyl)amino]-2-oxo-1S-(phenylmethyl)ethyl]amino]-4-oxo-4H-3,1-benzoxazin-6-yl]methyl]carbamate] | 15 |  | 47 | IC50 [3]: 0.6 µM
3 | COc1ccc(C[C@H](Nc2nc3ccc(CNC(=O)Oc4ccccc4)c(C)c3c(=O)o2)C(=O)N(C)Cc2ccccc2)cc1 [Example 9j, Phenyl[[2-[[1S-[(4-methoxyphenyl)methyl]-2-[methyl(phenylmethyl)amino]-2-oxcethyl]amino]-5-methyl-4-oxo-4H-3,1-benzoxazin-6-yl]methyl]carbamate] | 20 |  |  | IC50 [3]: 0.4 µM
4 | CCN(Cc1ccccc1)C(=O)[C@H](Cc1ccc(OC)cc1)Nc1nc2ccc(CNC(=O)Oc3ccccc3)c(C)c2c(=O)o1 [Example 9q, Phenyl[[2-[[2-[ethyl(phenylmethyl)amino-1S-,(4-methoxyphenyl)methyl]-2-oxoethyl]amino]-5-methyl-4-oxo-3,1-benzoxazin-6-yl]methyl]carbamate] | 18 |  |  | HLE, % @ concentration ([2]; @ 5 (concentration unit not given)): 48% @ 5; IC50 [3]: 1 µM
5 | COc1ccc(C[C@H](Nc2nc3ccc(NC(=O)OCC(C)C)c(C)c3c(=O)o2)C(=O)N(C)Cc2ccccc2)cc1 [Example 11s, 2-Methylpropyl[2-[[1S-[(4-methoxyphenyl)methyl]-2-[methyl(phenylmethyl)amino]-2-oxoethyl]amino]-5-methyl-4H-3,1-benzoxazin-6-yl]carbamate] | 17 |  |  | Assemblin Protease, % @ concentration [3, 5]: 58% @ 10
6 | COc1ccc(C[C@H](Nc2nc3ccc(NC(=O)OCc4ccccc4)c(C)c3c(=O)o2)C(=O)N(C)Cc2ccccc2)cc1 [Example 11t, Phenylmethyl[2-[[1S-[(4-methoxyphenyl)methyl]-2-[methyl(phenylmethyl)amino]-2-oxoethyl]amino]-5-methyl-4H-3,1-benzoxazin-6-yl]carbamate] | 35 |  |  | Assemblin Protease, % @ concentration [3, 5]: 38% @ 10
7 | Cc1c(CNC(=O)N(C)c2ccccc2)ccc2nc(N[C@@H](Cc3ccccc3)C(=O)N(C)Cc3ccccc3)oc(=O)c12 [Example 12i, N-Methyl-αS-[[5-methyl-6-[[[(methylphenylamino)carbonyl]amino]methyl]-4-oxo-4H-3,1-benzoxazin-2-yl]amino]-N-(phenylmethyl)benzenepropanamide] | 6 | 47 |  | 
8 | COc1ccc(C[C@H](Nc2nc3ccc(CNC(=O)NCc4ccccc4)c(C)c3c(=O)o2)C(=O)N(C)Cc2ccccc2)cc1 [Example 12j, 4-Methoxy-N-methyl-αS-[[5-methyl-4-oxo-6-[[[[(phenylmethyl)amino]carbonyl]amino]methyl]-4H-3,1-benzoxazin-2-yl]amino]-N-(phenylmethyl)benzenepropanamide] | 17 | 63 |  | 
9 | COc1ccc(C[C@H](Nc2nc3ccc(NS(=O)(=O)c4ccccc4)c(C)c3c(=O)o2)C(=O)N(C)Cc2ccccc2)cc1 [Example 13c, 4-Methoxy-N-methyl-αS-[[5-methyl-4-oxo-6-[(phenylsulfonyl)amino]-4H-3,1-benzoxazin-2-yl]amino]-N-(phenylmethyl)benzenepropanamide] | 10 |  | 39 | 
10 | Cc1ccc(S(=O)(=O)NCc2cc(Br)c3nc(N[C@@H](Cc4ccccc4)C(=O)N(C)Cc4ccccc4)oc(=O)c3c2C)cc1 [Example 13d, αS-[[8-Bromo-5-methyl-6-[[[(4-methylphenyl)sulfonyl]amino]methyl]-4-oxo-4H-3,1-benzoxazin-2-yl]amino]-N-methyl-N-(phenylmethyl)benzenepropanamide] | 8 |  | 87 | 
11 | Cc1c(CNS(=O)(=O)c2ccccc2)ccc2nc(N[C@@H](Cc3ccccc3)C(=O)N(C)Cc3ccccc3)oc(=O)c12 [Example 13e, N-Methyl-αS-[[5-methyl-4-oxo-6-[[(phenylsulfonyl)amino]methyl]-4H-3,1-benzoxazin-2-yl]amino]-N-(phenylmethyl)benzenepropanamide] | 14 |  |  | Assemblin Protease, % @ concentration [3, 6]: 11% @ 100
12 | CCOC(=O)NCc1cc(Br)c2nc(N[C@@H](Cc3ccccc3)C(=O)N(C)Cc3ccccc3)oc(=O)c2c1C [Example 15b, Ethyl[[8-bromo-5-methyl-2-[[2-[methyl(phenylmethyl)amino]-2-oxo-1S-(phenylmethyl)ethyl]amino]-4-oxo-4H-3,1-benzoxazin-6-yl]methyl]carbamate] | 16 |  |  | Assemblin Protease, % @ concentration [3, 5]: 39% @ 10
13 | Cc1c(CNC(=O)CN2CCOCC2)cc(Br)c2nc(N[C@@H](Cc3ccccc3)C(=O)N(C)Cc3ccccc3)oc(=O)c12 [Example 15e, N-[[8-Bromo-5-methyl-2-[[2-[methyl(phenylmethyl)amino]-2-oxo-1S-(phenylmethyl)ethyl]amino]-4-oxo-4H-3,1-benzoxazin-6-yl]methyl]morpholine-4-acetamide] | 16 |  |  | HLE, % @ concentration [2, 6]: 78% @ 100
14 | CCN(Cc1ccccc1)C(=O)[C@H](Cc1ccccc1)Nc1nc2c(Br)cc(CNC(=O)CN3CCOCC3)c(C)c2c(=O)o1 [Example 15g, N-[[8-Bromo-2-[[2-[ethyl(phenylmethyl)amino]-2-oxo-1S-(phenylmethyl)ethyl]amino]-5-methyl-4-oxo-4H-3,1-benzoxazin-6-yl]methyl]morpholine-4-acetamide] | 16 | 22 |  | 
15 | Cc1c(N(C)C)ccc2nc(N[C@@H](Cc3ccccc3)C(=O)N(C)Cc3ccccc3)oc(=O)c12 [Example 16, αS-[[6-(Dimethylamino)-5-methyl-4-oxo-4H-3,1-benzoxazin-2-yl]amino]-N-methyl-N-(phenylmethyl) benzenepropanamide] | 17 |  | 59 | 
16 | CCN(C(=O)[C@H](Cc1ccc(OC)cc1)Nc1nc2ccc(N(C)C)c(C)c2c(=O)o1)c1ccccc1 [Example 16b, αS-[[6-(Dimethylamino)-5-methyl-4-oxo-4H-3,1-benzoxazin-2-yl]amino]-N-ethyl-4-methoxy-N-phenylbenzenepropanamide] | 20 | 49 |  | 
17 | COc1ccc(C[C@H](Nc2nc3ccc(N(C)C)c(C)c3c(=O)o2)C(=O)N(C)c2ccc(Cl)cc2)cc1 [Example 16c, N-(4-Chlorophenyl)-αS-[[6-(dimethylamino)-5-methyl-4-oxo-4H-3,1-benzoxazin-2-yl]amino]-4-methoxy-N-methylbenzenepropanamide] | 18 |  | 18 | 
18 | Cc1c(NCc2ccccc2)ccc2nc(N[C@@H](Cc3ccccc3)C(=O)N(C)Cc3ccccc3)oc(=O)c12 [Example 17d, N-Methyl-αS-[[5-methyl-4-oxo-6-[(phenylmethyl)amino]-3,1-benzoxazin-2-yl]amino]-N-(phenylmethyl)benzenepropanamide] | 15 |  | 48 | 
19 | COc1ccc(C[C@H](Nc2nc3ccc(CNC(=O)OCc4ccncc4)c(C)c3c(=O)o2)C(=O)N(C)Cc2ccccc2)cc1 [Example 18d, (4-Pyridinyl)methyl[[2-[[1S-[(4-methoxyphenyl)methyl]-2-[methyl(phenylmethyl)amino]-2-oxoethyl]amino]-5-methyl-4-oxo-3,1-benzoxazin-6-yl]methyl]carbamate] | 12 | 55 |  | 
